Data reported in US5962502A, “Polyamidic acid derivatives with antigastrin activity, a method for their preparation, and their pharmaceutical use” (priority 1993, dated 1999).

Legend:
central CCK-B receptor = target: T1, central CCK-B receptor (Cavia porcellus, UniProt H0VZC5); test: Inhibition of the binding of [3-H][N-methyl-N-leucine]CCK-8 to guinea-pig cortical membranes; conditions: for IC50: guinea-pig cortical membranes, 150 minutes at 25° C.
T1 construct: Cerebral cortices of male white guinea-pigs were thus used; from tissue; host or cells: cerebral cortex membranes of male white guinea-pigs
T1 sequence (H0VZC5 1-426): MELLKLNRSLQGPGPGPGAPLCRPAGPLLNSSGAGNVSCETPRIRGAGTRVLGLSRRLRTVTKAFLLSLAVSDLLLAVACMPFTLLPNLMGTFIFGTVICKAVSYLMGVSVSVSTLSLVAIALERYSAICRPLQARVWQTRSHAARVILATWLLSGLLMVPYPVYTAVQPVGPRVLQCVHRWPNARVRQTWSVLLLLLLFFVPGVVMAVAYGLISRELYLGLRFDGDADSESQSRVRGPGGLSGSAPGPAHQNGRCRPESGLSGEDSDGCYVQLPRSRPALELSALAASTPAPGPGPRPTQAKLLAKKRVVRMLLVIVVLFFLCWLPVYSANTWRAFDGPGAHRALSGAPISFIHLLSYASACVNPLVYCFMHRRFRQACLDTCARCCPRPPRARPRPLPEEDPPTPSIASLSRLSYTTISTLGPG
Procedure: The ability of the compounds of the invention to interact with the central CCK-B receptor was evaluated with the use of non-sulphated [3-H] […] 225 (3) (1990), 1278-1286].
Cerebral cortices of male white guinea-pigs were thus used, according to the method mentioned above, so as to obtain a membrane content corresponding to about 300 mcg of proteins/ml. The membranes were incubated together with the radioactive tracer and the compounds under test for 150 minutes at 25° C. After the supernatant had been discarded, the radioactivity associated with the pellet was determined with a liquid scintillator. The specific binding was determined as the difference between the binding in the absence and in the presence of 5.10^-6 M CCK-8.

mouse = test: Black and White Box test in the mouse (anxiolytic activity); type: in vivo; conditions: for LIGHT TIME TOTAL TIME / LIGHT-DARK MOVEMENTS / MOV. DARK % TOTAL MOV. / TOTAL MOVEMENTS: 5 minutes; for anxiolytic activity, result in words: Black and White Box test, IP
Procedure: It has recently been postulated that the central CCK-B receptor has an important role in anxiety. This is in accordance with studies also carried out in man, which have shown that the central CCK-B mechanisms have an important function in the mediation of panic attacks [Bradwejn, H. et al; J. Psychopharmacology 6 (1992), 345]. […] This experimental model, which was carried out according to Costall et al [Pharm. Biochem. Behav. 32 (1989), 777-785], used a box with dimensions of 45×21×21(h) cm divided into 2 compartments which communicated with one another through a 13×5 cm hole. The smaller compartment (1/3 of the total area) had black walls, whereas the larger had transparent walls and was illuminated by a lamp which was placed 20 cm above the box and supplied light at 20W. Under the floor there was an activity meter which recorded the movements performed by the animal in the individual compartments. The experiment was started by placing the animal in the centre of the illuminated box; as well as movements, the time which the animal spent in the dark and in the light areas and the number of movements between the 2 compartments were then recorded for 5 minutes. A control animal generally preferred to stay in the dark compartment where it felt better protected from an unusual environmental situation which put it in a state of anxiety. In this experimental model, a compound having anxiolytic activity decreased the % of movements into the dark in comparison with the total movements, increased the movements between the two light-dark compartments, and increased the % of time spent in the light in comparison with the total time.
The results obtained are shown in Table 7, where the activities obtained with compounds 9, 21 and 51 are given, tested in comparison with diazepam.

O=C(O)CNC(=O)CC[C@@H](NC(=O)c1cc(Cl)cc(Cl)c1)C(=O)N1CCC2(CCCC2)CC1 [Compound 1]
IC50 (central CCK-B receptor): 1.06 µM

O=C(O)CCNC(=O)CC[C@@H](NC(=O)c1cc(Cl)cc(Cl)c1)C(=O)N1CCC2(CCCC2)CC1 [Compound 3]
IC50 (central CCK-B receptor): 0.73 µM

O=C(O)CCCNC(=O)CC[C@@H](NC(=O)c1cc(Cl)cc(Cl)c1)C(=O)N1CCC2(CCCC2)CC1 [Compound 4]
IC50 (central CCK-B receptor): 1.25 µM

CC(NC(=O)CC[C@@H](NC(=O)c1cc(Cl)cc(Cl)c1)C(=O)N1CCC2(CCCC2)CC1)C(=O)O (stereo partly drawn) [Compound 5]
IC50 (central CCK-B receptor): 1.32 µM

CSCCC(NC(=O)CC[C@@H](NC(=O)c1cc(Cl)cc(Cl)c1)C(=O)N1CCC2(CCCC2)CC1)C(=O)O (stereo partly drawn) [Compound 7]
IC50 (central CCK-B receptor): 0.51 µM

O=C(CC[C@@H](NC(=O)c1cc(Cl)cc(Cl)c1)C(=O)N1CCC2(CCCC2)CC1)N[C@@H](C(=O)O)c1ccccc1 [Compound 13]
IC50 (central CCK-B receptor): 0.42 µM

O=C(CC[C@@H](NC(=O)c1cc(Cl)cc(Cl)c1)C(=O)N1CCC2(CCCC2)CC1)NC(Cc1ccc(Cl)cc1)C(=O)O (stereo partly drawn) [Compound 17]
IC50 (central CCK-B receptor): 0.68 µM

O=C(CC[C@@H](NC(=O)c1cc(Cl)cc(Cl)c1)C(=O)N1CCC2(CCCC2)CC1)N[C@H](Cc1cccnc1)C(=O)O [Compound 26]
IC50 (central CCK-B receptor): 0.25 µM

O=C(CC[C@@H](NC(=O)c1cccc(Cl)c1)C(=O)NCCC12CC3CC(CC(C3)C1)C2)N[C@H](Cc1c[nH]c2ccccc12)C(=O)O [Compound 31]
IC50 (central CCK-B receptor): 13.9 µM

Cc1cccc(C(=O)N[C@H](CCC(=O)N[C@H](Cc2c[nH]c3ccccc23)C(=O)O)C(=O)N2CCC3(CCCC3)CC2)c1 [Compound 32]
IC50 (central CCK-B receptor): 3.56 µM

CC(C)(C)CCNC(=O)[C@@H](CCC(=O)NC(Cc1ccccc1)C(=O)O)NC(=O)c1cccc(Cl)c1 (stereo partly drawn) [Compound 33]
IC50 (central CCK-B receptor): > 30 µM

O=C(O)CC[C@@H](NC(=O)CC[C@@H](NC(=O)c1cc(Cl)cc(Cl)c1)C(=O)N1CCC2(CCCC2)CC1)C(=O)N1CCC2(CCCC2)CC1 [Compound 36]
IC50 (central CCK-B receptor): 1.7 µM

CN(C(=O)[C@@H](CCC(=O)O)NC(=O)CC[C@@H](NC(=O)c1cc(Cl)cc(Cl)c1)C(=O)N1CCC2(CCCC2)CC1)c1ccccc1 [Compound 37]
IC50 (central CCK-B receptor): 0.7 µM

O=C(O)CC[C@@H](NC(=O)CC[C@@H](NC(=O)c1cc(Cl)cc(Cl)c1)C(=O)N1CCC2(CCCC2)CC1)C(=O)Nc1ccc2ccccc2c1 [Compound 39]
IC50 (central CCK-B receptor): 0.7 µM

O=C(O)CC[C@@H](NC(=O)CC[C@@H](NC(=O)c1cc(Cl)cc(Cl)c1)C(=O)N1CCC2(CCCC2)CC1)C(=O)NCCC12CC3CC(CC(C3)C1)C2 [Compound 40]
IC50 (central CCK-B receptor): > 30 µM

O=C(O)CC[C@@H](NC(=O)CC[C@@H](NC(=O)c1cc(Cl)cc(Cl)c1)C(=O)N1CCC2(CCCC2)CC1)C(=O)NCCc1ccccc1 [Compound 41]
IC50 (central CCK-B receptor): 0.79 µM

CCCCCN(CCCCC)C(=O)[C@@H](CCC(=O)N[C@H](Cc1c[nH]c2ccccc12)C(=O)O)NC(=O)c1ccc2ccccc2c1 [Compound 42]
IC50 (central CCK-B receptor): 1.88 µM

O=C(C[C@@H](NC(=O)c1cc(Cl)cc(Cl)c1)C(=O)N1CCC2(CCCC2)CC1)N[C@H](Cc1ccccc1)C(=O)O [Compound 44]
IC50 (central CCK-B receptor): 0.35 µM

CC(Cc1ccccc1)(NC(=O)CC[C@@H](NC(=O)c1cc(Cl)cc(Cl)c1)C(=O)N1CCC2(CCCC2)CC1)C(=O)O (stereo partly drawn) [Compound 45]
IC50 (central CCK-B receptor): 0.58 µM

CN(C(=O)c1cc(Cl)cc(Cl)c1)[C@H](CCC(=O)N[C@H](Cc1c[nH]c2ccccc12)C(=O)O)C(=O)N1CCC2(CCCC2)CC1 [Compound 46]
IC50 (central CCK-B receptor): 0.12 µM

CN(C(=O)CC[C@@H](NC(=O)c1cc(Cl)cc(Cl)c1)C(=O)N1CCC2(CCCC2)CC1)c1ccc(C(=O)O)cc1 [Compound 48]
IC50 (central CCK-B receptor): 0.44 µM

O=C(CC[C@@H](NC(=O)c1cc(Cl)cc(Cl)c1)C(=O)N1CCC2(CCCC2)CC1)Nc1cccc(C(=O)O)c1 [Compound 49]
IC50 (central CCK-B receptor): 1.39 µM

O=C(CC[C@@H](NC(=O)c1ccccc1)C(=O)N1CCC2(CCCC2)CC1)Nc1ccc(C(=O)O)cc1 [Compound 54]
IC50 (central CCK-B receptor): 9.21 µM

O=C(C[C@@H](NC(=O)c1cc(Cl)cc(Cl)c1)C(=O)N1CCC2(CCCC2)CC1)Nc1ccccc1C(=O)O [Compound 55]
IC50 (central CCK-B receptor): > 30 µM

O=C(CC[C@@H](NC(=O)c1cc(Cl)cc(Cl)c1)C(=O)N1CCC2(CCCC2)CC1)NCc1ccc(C(=O)O)cc1 [Compound 56]
IC50 (central CCK-B receptor): 19.5 µM

O=C(O)Cc1ccc(NC(=O)CC[C@@H](NC(=O)c2cc(Cl)cc(Cl)c2)C(=O)N2CCC3(CCCC3)CC2)cc1 [Compound 57]
IC50 (central CCK-B receptor): 7.73 µM

O=C(CC[C@H](NC(=O)c1cc(Cl)cc(Cl)c1)C(=O)N1CCC2(CCCC2)CC1)N[C@H](Cc1ccccc1)C(=O)O [Compound S-9, reference compound]
EFF. % VS CONTROL (LIGHT TIME TOTAL TIME) (mouse; 1.0 mg/kg IP): 3%
EFF. % VS CONTROL (LIGHT-DARK MOVEMENTS) (mouse; 1.0 mg/kg IP): 6%
EFF. % VS CONTROL (MOV. DARK % TOTAL MOV.) (mouse; 1.0 mg/kg IP): -5%
LIGHT TIME TOTAL TIME (mouse; 1.0 mg/kg IP): 28.5%
LIGHT-DARK MOVEMENTS (mouse; 1.0 mg/kg IP): 18.2
MOV. DARK % TOTAL MOV. (mouse; 1.0 mg/kg IP): 57%
TOTAL MOVEMENTS (mouse; 1.0 mg/kg IP): 528
EFF. % VS CONTROL (LIGHT TIME TOTAL TIME) (mouse; 10.0 mg/kg IP): 0%
EFF. % VS CONTROL (LIGHT-DARK MOVEMENTS) (mouse; 10.0 mg/kg IP): 0%
EFF. % VS CONTROL (MOV. DARK % TOTAL MOV.) (mouse; 10.0 mg/kg IP): +3%
LIGHT TIME TOTAL TIME (mouse; 10.0 mg/kg IP): 24.9%
LIGHT-DARK MOVEMENTS (mouse; 10.0 mg/kg IP): 14.4
MOV. DARK % TOTAL MOV. (mouse; 10.0 mg/kg IP): 62%
TOTAL MOVEMENTS (mouse; 10.0 mg/kg IP): 495
anxiolytic activity, result in words (mouse): completely inactive
times less active than its R diastereoisomer, compound 9 (centre *) (central CCK-B receptor; binding, guinea-pig cortex): about 250 times
IC50 (central CCK-B receptor): 38.6 µM
CCK-B-antagonistic activity in vitro, result in words (central CCK-B receptor; see Table 3): weak CCK-B-antagonistic activity

CN1C(=O)CN=C(c2ccccc2)c2cc(Cl)ccc21 [DIAZEPAM, diazepam, reference compound]
EFF. % VS CONTROL (LIGHT TIME TOTAL TIME) (mouse; 1.0 mg/kg IP): 19%
EFF. % VS CONTROL (LIGHT-DARK MOVEMENTS) (mouse; 1.0 mg/kg IP): 37%
EFF. % VS CONTROL (MOV. DARK % TOTAL MOV.) (mouse; 1.0 mg/kg IP): -5%
LIGHT TIME TOTAL TIME (mouse; 1.0 mg/kg IP): 29.3%
LIGHT-DARK MOVEMENTS (mouse; 1.0 mg/kg IP): 19.9
MOV. DARK % TOTAL MOV. (mouse; 1.0 mg/kg IP): 53%
TOTAL MOVEMENTS (mouse; 1.0 mg/kg IP): 508
EFF. % VS CONTROL (LIGHT TIME TOTAL TIME) (mouse; 3.0 mg/kg IP): 37%
EFF. % VS CONTROL (LIGHT-DARK MOVEMENTS) (mouse; 3.0 mg/kg IP): 54%
EFF. % VS CONTROL (MOV. DARK % TOTAL MOV.) (mouse; 3.0 mg/kg IP): -7%
LIGHT TIME TOTAL TIME (mouse; 3.0 mg/kg IP): 33.6%
LIGHT-DARK MOVEMENTS (mouse; 3.0 mg/kg IP): 22.3
MOV. DARK % TOTAL MOV. (mouse; 3.0 mg/kg IP): 52%
TOTAL MOVEMENTS (mouse; 3.0 mg/kg IP): 539
effect on the total movements parameter, result in words (mouse; 1 and 3 mg/kg): significantly increased
anxiolytic activity, result in words (mouse): active for all the parameters tested
